Measured values: PubChem BioAssay (NCI)
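Compound exposure: 48 hours, 5 concentrations, 96-well plates. Definition used: TGI = concentration required for complete inhibition of growth.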

How the values were obtained:
Test in all cases: NCI-60 cell line screen, 48 h
[1] = system: UO-31 renal
[2] = system: BT-549 breast
[3] = system: SK-MEL-2 melanoma
[4] = system: RXF 393 renal
[5] = system: IGROV1 ovarian
[6] = system: SNB-19 CNS
[7] = system: M14 melanoma
[8] = system: K-562 leukemia
[9] = system: HT29 colon
[10] = system: SK-MEL-5 melanoma
[11] = system: HCT-15 colon
[12] = system: MDA-MB-231 breast
[13] = system: MCF7 breast
[14] = system: SK-MEL-28 melanoma
[15] = system: NCI/ADR-RES ovarian
[16] = system: COLO 205 colon
[17] = system: MOLT-4 leukemia
[18] = system: NCI-H23 lung
[19] = system: DU-145 prostate
[20] = system: HCT-116 colon
[21] = system: SW-620 colon
[22] = system: PC-3 prostate
[23] = system: OVCAR-4 ovarian
[24] = system: NCI-H226 lung
[25] = system: SNB-75 CNS
[26] = system: 786-0 renal
[27] = system: UACC-62 melanoma
[28] = system: SF-539 CNS
[29] = system: A498 renal
[30] = system: CAKI-1 renal
[31] = system: CCRF-CEM leukemia
[32] = system: HCC-2998 colon
[33] = system: A549 NSCLC
[34] = system: SN12C renal
[35] = system: KM12 colon
[36] = system: HS 578T breast
[37] = system: U251 CNS
[38] = system: SK-OV-3 ovarian
[39] = system: SR leukemia
[40] = system: HL-60(TB) leukemia
[41] = system: RPMI-8226 leukemia
[42] = system: NCI-H522 lung
[43] = system: SF-268 CNS
[44] = system: TK-10 renal
[45] = system: NCI-H460 lung
[46] = system: MDA-MB-435
[47] = system: EKVX NSCLC
[48] = system: LOX IMVI melanoma
[49] = system: OVCAR-3 ovarian
[50] = system: UACC-257 melanoma
[51] = system: OVCAR-8 ovarian
[52] = system: T-47D breast
[53] = system: OVCAR-5 ovarian
[54] = system: MDA-N
[55] = system: MALME-3M melanoma
[56] = system: HOP-62 NSCLC
[57] = system: SF-295 CNS
[58] = system: ACHN renal

Measured: TGI

CN=C(n1ccnc1)n1ccnc1
not listed: [56] | [57] | [58]
> 100 µM: all other assays above

Nc1c(C(=O)O)nnc2ccc(Cl)cc12
not listed: [4] | [14]
> 100 µM: all other assays above

Cc1ccc(-n2cnc(C(=N)C#N)c2N)cc1
not listed: [4]
> 100 µM: all other assays above
